Like-named read-outs stand apart in the source and are kept apart here.
Key:
[1] = system: NFkB; assay: LPS-induced NFkB-driven luciferase activity in THP-1 LUCIA monocytes; assay type: cell-based; conditions: for effect on LPS-induced NFkB-driven luciferase activity (in words): doses 10^-12 M to 10^-6 M, 50 ng/ml LPS, 24 h; for reduction of LPS-induced NFkB luciferase activity: 30 min pre-treatment, then 24 h with 50 ng/ml LPS, relative to LPS; for concentration at which maximal inhibition of LPS-induced NFkB activity is reached: dose-response 10^-12 M to 10^-6 M; for potency in reducing LPS-induced NFkB activity, comparison in words: versus LXA4 or other analogues
Procedure: 1×10^5 THP-1 LUCIA monocytes were pre-treated for 30 min with native LXA4 1 (FIG. 1A), imidazole analogues 9 [(1R)-epimer (FIG. 1B) and (1S)-epimer (FIG. 1C)], vehicle or appropriate controls, at increasing doses ranging from 10^−12 M up to 10^−6 M. 10^8 HKLM was used as positive control for NFkB activation. After 24 h from stimulation with 50 ng/ml of LPS, supernatants were collected and NFkB-driven luciferase was measured. (d) Data are expressed as % Relative Luminescence Unit relative to LPS alone ±SEM (n=3), *=p<0.05, **=p<0.01, ***=p<0.001. Graphs display the statistical analysis of the tested compound vs LPS.
(§1) The experiments were based around a model which utilised 1×10^5/ml THP-1 monocytes stably expressing NFkB luciferase reporter gene (LUCIA).
(§2) Anti-inflammatory activity was assessed by testing 10 analogues (6 quinoxalines & 4 isoquinolines) in presence & absence of lipopolysaccharide (LPS). For each analogue, a dose-response from 10^−12 M up to 10^−6 M was performed. The vehicle control corresponded to 0.1% Ethanol. NFkB activator, Heat-Killed Listeria Monocytogenes (HKLM) (10^7 cells/ml), were used as positive control for luciferase induction. 10^−6 M Dexamethasone (Dex) was used as positive control for luciferase inhibition. […] Benzo-lipoxin A4 (BLX) was used as positive control for LXA4 analogues.
A 2-tailed, assuming unequal variance T-test analysis was performed on three independent experiments for each assay. P-values were considered significant when p<0.05. If p<0.05, then * or $; if p<0.01, then ** or $$ or ##; if p<0.001, then *** or $$$ or ###.
Cells were seeded in 96-well plates and pre-treated with increasing doses of LXA4, analogues or controls for 30 min, followed by 24 h of co-incubation with 50 ng/ml LPS. […] (*=statistical analysis vs LPS; $=statistical analysis vs LXA4)

[2] = system: NFkB; assay: NFkB-driven luciferase activity in resting conditions (absence of LPS) in THP-1 LUCIA monocytes; assay type: cell-based; conditions: 10^-12 M to 10^-6 M, 24 h
Procedure: 1×10^5 THP-1 LUCIA monocytes were treated for 30 min with native (a) LXA4 1, its stable imidazole-lipoxin analogues (1R)-9 and (1S)-9, vehicle or appropriate controls, at increasing doses ranging from 10^−12 M up to 10^−6 M. After 24 h, supernatants were collected and NFkB-driven luciferase was measured. Data are expressed as % Relative Luminescence Unit relative to LPS alone ±SEM (n=3).
as §1, §2

[3] = system: Th1 cytokine release; assay: LPS-induced Th1 cytokine release from THP-1 LUCIA monocytes; assay type: cell-based; conditions: 10^-11, 10^-9 or 10^-7 M; 50 ng/ml LPS 24 h; IL1β, IL6, IL12p70, IFNγ, TNF-α as per figure
Procedure: FIG. 2A-2E are graphs showing imidazole-lipoxin analogues (1R)-9 and (1S)-9 reduce LPS-induced Th1 cytokine release. 1×10^5 THP-1 LUCIA monocytes were pre-treated for 30 min with […], 10^−9 M or 10^−7 M of LXA4 1 and imidazole-lipoxin analogues (1R)-9 and (1S)-9, vehicle or appropriate controls. After 24 h from stimulation with 50 ng/ml of LPS, supernatants were collected and […] (FIG. 2A), IL6 (FIG. 2B), IL12p70 (FIG. 2C), IFNγ (FIG. 2D), and TNF-α (FIG. 2E) levels were measured. Data are expressed as % cytokine secretion relative to LPS alone ±SEM (n=3), *=p<0.05, **=p<0.01, ***=p<0.001.
FIG. 6A-6C are graphs showing that quinoxaline-lipoxin analogue (1R)-CT-4-43 inhibits LPS-induced Th1 cytokine release. 1×10^5 THP-1 LUCIA monocytes were pre-treated for 30 min with […], 10^−9 M or 10^−7 M of LXA4 and quinoxaline-lipoxin analogue (1R)-CT-4-43, vehicle or appropriate controls. After 24 h from stimulation with 50 ng/ml of LPS, supernatants were collected and IL13 (FIG. 6A), IL6 (FIG. 6B), and IFNγ (FIG. 6C) levels were measured. Data are expressed as % cytokine secretion relative to LPS alone ±SEM (n=3), *=p<0.05, **=p<0.01, ***=p<0.001.
FIG. 9A-9C are graphs showing that the isoquinoline-lipoxin analogue RB3 inhibit LPS-induced Th1 cytokine release. 1×10^5 THP-1 LUCIA monocytes were pre-treated for 30 min with 10^−11 M, 10^−9 M or 10^−7 M of LXA4 and isoquinoline-lipoxin analogue (1R)-RB3, vehicle or appropriate controls. After 24 h from stimulation with 50 ng/ml of LPS, supernatants were collected and IL1β(FIG. 9A), IL6 (FIG. 9B), and IL12p70 (FIG. 9C) levels were measured. Data are expressed as % cytokine secretion relative to LPS alone ±SEM (n=3), *=p<0.05, **=p<0.01, ***=p<0.001.

[4] = system: zymosan-induced peritonitis; assay: Murine zymosan-induced peritonitis; assay type: in vivo, C57BL6/J mice; conditions: lavage 24 h
Procedure: As shown in FIG. 17 zymosan [1 mg per mouse in 200 μl H2O] induced a massive influx of leukocytes detected in lavage 24 h post-zymosan. […] Mean of total cell numbers=4.27×10^6/ml [basal]; 5.9×107 [vehicle pretreatment and zymosan]; 2.18×107 [LXA4 pretreatment and zymosan]. Pretreament with (R) and (S) epimers of 9 also attenuated cell influx: 2.5×10^7/ml [pretreatment with (1R)-9 and zymosan; p=0.0368, relative to zymosan alone]; 1.16×107 (1S)-9 [p=0.0048 relative to zymosan alone]. Importantly, (1R)-9 and (1S)-9 were administered at doses of 1.7 ng/g using the same regimen as LXA4. As anticipated the leukocyte influx was predominantly neutrophil [PMN]. PMN numbers were reduced to 35, 44 and 20% maximum response by LXA4, (1R)-9 and (1S)-9 epimers respectively.
Effect of LXA4 1 and imidazole-lipoxin analogues (1R)-9 and (1S)-9 on murine zymosan-induced peritonitis. Peritonitis was induced in groups of 5 male C57BL6/J mice by injection of zymosan (Sigma) i.p. (1 mg per mouse in 200 μl H2O). Mice were treated with LXA4 1; (5 ng/g); (1R)-9 (1.7 ng/g) or (1S)-9 (1.7 ng/g) (200 μl i.p.) 30 minutes prior to zymosan injection and again, 1 hour after zymosan injection. Treatments with LXA4 1, (1R)-9 and (1S)-9 are designated A, B and C respectively. Peritoneal cells were collected by lavage 24 hours after injection of zymosan. Cells were incubated with LIVE/DEAD Fixable Aqua stain (Molecular probes, Invitrogen) to isolate dead cells. Data shown are total cell counts/ml. Surface marker expression on peritoneal cells was assessed by flow cytometry with data collection on a CyAn (Beckman Coulter). Data were analyzed using FlowJo software (Tree Star). Cells were stained with BD Biosciences mAbs; Siglec-F-PE (E50-2440), F4/80-FITC (BM8), eBiosciences mAb; CD11b-PerCP (M1/70) and BioLegend mAbs; CD206-PECy7 (C068C2) and Ly6G-APCCy7 (1A8). Using appropriate isotype-controls, quadrants were drawn and data plotted on logarithmic scale density- or dot-plots to investigate the relative % of PMN, eoisiophils, M1 and M2 macrophgaes. […]

[5] = system: THP-1 monocytes
Procedure: Cytotoxicity Prior to functional assay testing, all compounds were screened for any cytotoxic effect, in the presence & absence of LPS, measuring the level of lactate dehydrogenase (LDH) released at A490nm.
The cells were treated as described above and, after 24 h, supernatant was collected and LDH activity assayed.

[6] = 1.7 ng/g i.p. 30 min before and 1 h after zymosan

SMILES: CCCCC[C@@H](O)c1nc(-c2ccccc2)n(-c2ccccc2)c1/C=C/[C@@H](O)[C@@H](O)CCCC(=O)OC [(1R)-9, Methyl (5S,6R,E)-5,6-dihydroxy-8-(4-((R)-1-hydroxyhexyl)-1,2-diphenyl-1H-imidazol-5-yl)oct-7-enoate]
- effect on LPS-induced NFkB-driven luciferase activity (in words) [1]: attenuating
- NFkB-driven luciferase activity in resting conditions (in words) [2]: do not elicit
- effect on LPS-induced Th1 cytokine release (in words) [3]: reduce
- PMN numbers [4, 6]: 44 % maximum response

SMILES: CCCCCCC[C@@H](O)c1nc2ccccc2nc1/C=C/[C@@H](O)[C@@H](O)CCCC(=O)OC [(1R)-CT4-63, Methyl (5S,6R,E)-5,6-dihydroxy-8-(3-((R)-1-hydroxyoctyl)quinoxalin-2-yl)oct-7-enoate]
- reduction of LPS-induced NFkB luciferase activity ([1]; 1 nM): 22.8±7.4%
- concentration at which maximal inhibition of LPS-induced NFkB activity is reached [1]: 1 nM
- effect on LPS-induced NFkB-driven luciferase activity (in words) [1]: attenuates
- potency in reducing LPS-induced NFkB activity, comparison in words [1]: not significantly different from LXA4

SMILES: CCC[C@@H](O)c1nc2ccccc2nc1/C=C/[C@@H](O)[C@@H](O)CCCC(=O)OC [(1R)-CT4-68, Methyl (5S,6R,E)-5,6-dihydroxy-8-(3-((R)-1-hydroxybutyl)quinoxalin-2-yl)oct-7-enoate]
- reduction of LPS-induced NFkB luciferase activity ([1]; 1 uM): 28.9±6.6%
- effect on LPS-induced NFkB-driven luciferase activity (in words) [1]: attenuates

SMILES: CCCCC[C@@H](O)c1nc(/C=C/[C@@H](O)[C@@H](O)CCCC(=O)OC)cc2ccccc12 [(1R)-DM-163-RB3]
- reduction of LPS-induced NFkB luciferase activity ([1]; 10 nM): 35.4±6.1%
- reduction of LPS-induced NFkB luciferase activity ([1]; 100 nM): 37.9±9.7%
- effect on LPS-induced NFkB-driven luciferase activity (in words) [1]: attenuates
- potency in reducing LPS-induced NFkB activity, comparison in words [1]: most potent
- NFkB-driven luciferase activity in resting conditions (in words) [2]: did not elicit
- effect on LPS-induced Th1 cytokine release (in words) [3]: inhibit

SMILES: CCCCC[C@H](O)c1nc(-c2ccccc2)n(-c2ccccc2)c1/C=C/[C@@H](O)[C@@H](O)CCCC(=O)OC [(1S)-9, Methyl (5S,6R,E)-5,6-dihydroxy-8-(4-((S)-1-hydroxyhexyl)-1,2-diphenyl-1H-imidazol-5-yl)oct-7-enoate]
- effect on LPS-induced NFkB-driven luciferase activity (in words) [1]: attenuating
- NFkB-driven luciferase activity in resting conditions (in words) [2]: do not elicit
- effect on LPS-induced Th1 cytokine release (in words) [3]: reduce
- PMN numbers [4, 6]: 20 % maximum response

SMILES: CCCCC[C@@H](O)c1ncc(/C=C/[C@@H](O)[C@@H]2CCCC(=O)O2)c2ccccc12 [(1S)-DM-178-SB4, (S)-6-((R,E)-1-Hydroxy-3-(1-((R)-1-hydroxyhexyl)isoquinolin-4-yl)allyl)tetrahydro-2H-pyran-2-one]
- reduction of LPS-induced NFkB luciferase activity ([1]; 1 uM): 26.8±8.7%
- effect on LPS-induced NFkB-driven luciferase activity (in words) [1]: attenuates

SMILES: CCCCC[C@@H](O)c1ccccc1/C=C/[C@@H](O)[C@@H](O)CCCC(=O)OC [Blx]
- effect on LPS-induced LDH activity (cytotoxicity, in words) [5]: significantly (p<0.001) decreased

SMILES: C[C@@H]1C[C@H]2[C@@H]3CCC4=CC(=O)C=C[C@]4(C)[C@@]3(F)[C@@H](O)C[C@]2(C)[C@@]1(O)C(=O)CO [Dexamethasone]
- effect on LPS-induced LDH activity (cytotoxicity, in words) ([5]; human, 24 h): significantly (p<0.001) increased

SMILES: CCCCC[C@@H](O)c1c(/C=C/[C@@H](O)[C@@H](O)CCCC(=O)OC)nc(C)n1C [KG-5-22, (5S,6R,E)-methyl 5,6-dihydroxy-8-(5-((R)-1-hydroxyhexyl)-1,2-dimethyl-1H-imidazol-4-yl)oct-7-enoate]
- reduction of LPS-induced NFkB luciferase activity ([1]; 1 pM): 43.7±8.9%
- reduction of LPS-induced NFkB luciferase activity ([1]; 10 pM): 41.3±9.0%
- effect on LPS-induced NFkB-driven luciferase activity (in words) [1]: attenuating
- NFkB-driven luciferase activity in resting conditions (in words) [2]: did not induce
- NFkB-driven luciferase activity in resting conditions (in words) ([2]; listed as KG5-22): does not elicit

SMILES: CCCCC[C@H](O)/C=C/C=C\C=C\C=C\[C@@H](O)[C@@H](O)CCCC(=O)O [LXA4, Lipoxin A4, reference compound]
- reduction of LPS-induced NFkB luciferase activity ([1]; 100 nM): 24±1.1%
- concentration at which maximal inhibition of LPS-induced NFkB activity is reached [1]: 100 nM
- PMN numbers ([4]; 5 ng/g i.p. 30 min before and 1 h after zymosan): 35 % maximum response

Source: patent publication US11161824B2, “Heterocyclic lipoxin analogs and uses thereof” (University College Dublin, National University of Ireland, …, priority 2016, dated 2021)
